Values after ≈ are worked out from the molar mass of the structure shown.
Details: for aqueous solubility: pH 6.8

SMILES	MDR1-MDCK efflux ratio	intrinsic clearance, human liver microsomes	intrinsic clearance, rat liver microsomes	aqueous solubility	fraction unbound, human plasma	fraction unbound, rat plasma
CCc1cc(=O)[nH]c(SCCN2CCCCC2)n1	3.43	≤ 4.74 mL/min/kg	441 mL/min/kg			
CN(CCn1cnc(C#N)c1C#N)c1ccccc1	0.634	52.4 mL/min/kg	1060 mL/min/kg			
CN(Cc1cnccn1)Cc1nc(N)c2ccccc2n1		15 mL/min/kg	458 mL/min/kg			
CC1(C)Oc2ccc(Cl)cc2[C@@H]2O[C@@H]3CCNC[C@@H]3C[C@H]21	11.3	≤ 4.74 mL/min/kg	103 mL/min/kg	42.5 µg/mL (≈ 138 µM)		
Cc1noc(C(C)C)c1C(=O)N1CC(C)OC(c2ccccc2)C1 (stereo not given)	0.943	71.2 mL/min/kg	1610 mL/min/kg		0.152	0.129
CC#CC(=O)N1CC[C@@H](n2c(=O)n(-c3ccc(Oc4ccccc4)cc3)c3c(N)ncnc32)C1	28.9	21.3 mL/min/kg	187 mL/min/kg	64.6 µg/mL (≈ 142 µM)	0.0863	0.0467
CSc1ccc(-c2ccc3n(c2=O)C[C@@H]2CNC[C@H]3C2)cc1	1.42	5.01 mL/min/kg	19.3 mL/min/kg	51.2 µg/mL (≈ 164 µM)		
CN(c1nc2ccccc2o1)C1CCN(C2CCOCC2)CC1		438 mL/min/kg	117 mL/min/kg			
COc1cc(OC)cc(-n2c(S)nnc2COc2cccc3ccccc23)c1	1.65			0.28 µg/mL (≈ 0.712 µM)		
COc1ccccc1C(=O)Nc1cccc(C#N)c1	0.246	85.5 mL/min/kg	80.9 mL/min/kg	33 µg/mL (≈ 131 µM)		
O=S(=O)(Nc1ccc(C(O)(C(F)(F)F)C(F)(F)F)cc1)c1ccccc1		7.61 mL/min/kg	17.1 mL/min/kg			
NC(=O)C1CCN(C(=O)CCc2ccc(Cl)cc2)CC1	6.24	≤ 4.74 mL/min/kg	135 mL/min/kg	47.8 µg/mL (≈ 162 µM)		
CCONC(=O)c1cnn(-c2cccc(Cl)c2)c1		34.9 mL/min/kg	446 mL/min/kg	41 µg/mL (≈ 154 µM)		
O=S(=O)(NC[C@H]1CCCN1)c1ccc(OC(F)F)cc1	2.89	≤ 4.74 mL/min/kg	34.5 mL/min/kg			
c1ccc(Cc2nnc(NC3CCOCC3)s2)cc1	1.23	≤ 4.74 mL/min/kg	20.6 mL/min/kg	34 µg/mL (≈ 123 µM)		
COc1ccc(OC)c(-c2cc(C(=O)N3CCCN(C(C)=O)CC3)no2)c1	4.72	12.9 mL/min/kg	214 mL/min/kg	59.7 µg/mL (≈ 160 µM)		

SMILES	MDR1-MDCK efflux ratio	intrinsic clearance, human liver microsomes	intrinsic clearance, rat liver microsomes	aqueous solubility	fraction unbound, human plasma	fraction unbound, rat plasma
Cc1cc(Nc2cc(N3CCN(C)CC3)nc(/C=C/c3ccccc3)n2)n[nH]1				0.2 µg/mL (≈ 0.533 µM)		
CCCCC1=NC2(CCCC2)C(=O)N1Cc1ccc(-c2ccccc2-c2nnn[nH]2)cc1	75.6	9.16 mL/min/kg	108 mL/min/kg	29.5 µg/mL (≈ 68.7 µM)		
CCOC(=O)CCN1CCC=C(Br)C1	0.625					
CCCNC(=O)c1ccc(OC2CCN(C)CC2)cc1		≤ 4.74 mL/min/kg	35.1 mL/min/kg			
Cc1ccncc1NC(=O)Cc1ccc(F)cc1		≤ 4.74 mL/min/kg	20.4 mL/min/kg			
CCn1cc(C(=O)O)c(=O)c2c(N)c(F)c(NC3CCCCC3)cc21		8.72 mL/min/kg	112 mL/min/kg		0.0268	0.0267
Cc1nnc(-c2ccc(N3CCC(Oc4cc(F)ccc4Cl)CC3)nn2)o1	0.65	≤ 4.74 mL/min/kg			0.0145	
CNC(=O)c1cc(-c2ccccc2)no1				37 µg/mL (≈ 183 µM)		
O=C(CSCCc1ccncc1)Nc1ccccc1	0.805	19.6 mL/min/kg	429 mL/min/kg			
CSc1ccc(C)c(C(=O)NCCN2CCC(C)CC2)c1	0.841	39.6 mL/min/kg	1750 mL/min/kg			
Cc1cc(C)c(-c2csc(NC(=O)Cn3cnnn3)n2)c(C)c1	7.69			0.12 µg/mL (≈ 0.365 µM)		
Cc1cccn(Cc2cccc(F)c2)c1=O	0.652	≤ 4.74 mL/min/kg	72 mL/min/kg	23.9 µg/mL (≈ 110 µM)		
Cc1ccc(-c2ccnc(N3C[C@@H](C)NC[C@@H]3C)n2)c(C)n1	25.7	≤ 4.74 mL/min/kg	78.7 mL/min/kg	25.9 µg/mL (≈ 87.2 µM)		
Cc1cc(C(=O)N(C)CCCC2CCCC2)cc(C)n1	0.782	63.9 mL/min/kg	5650 mL/min/kg			
Cc1ccc(O)c(CN2CCC(c3nc4ccccc4o3)CC2)n1	0.688	22.2 mL/min/kg	229 mL/min/kg			
